In the supplement of paper PMC7108870:

Legend:
HEK293sieSTAT3(Y640F) [1] = test: drug sensitivity score (DSS), cytotoxicity CellTox Green (DSS (dimensionless)); higher = more cytotoxic; extreme values may be limits of the assay; details: 72 h; STAT3 variant: Y640F (constitutively active)
Procedure, shortened: (§1)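 For 72 hours at 37°C and 5% CO2, HEK293 cells overexpressing wild-type or mutant STAT3 and carrying a STAT3-dependent luciferase reporter were cultured on compounds at 5 concentrations in 10-fold dilutions. CellTox Green and then CellTiter-Glo signals were read, normalised to negative and positive control wells, and converted in Breeze into a drug sensitivity score based on dose-response curve area. Values are from one representative of two experiments.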

HEK293sieSTAT3(wt) [2] = test: as above; details: 72 h; STAT3 variant: wild type
Procedure, shortened: as §1

HEK293sieSTAT3(Y640F) [3] = test: drug sensitivity score (DSS), viability CellTiter-Glo (DSS (dimensionless)); higher = more growth inhibition; extreme values may be limits of the assay; details: 72 h; STAT3 variant: Y640F (constitutively active)
Procedure, shortened: as §1

HEK293sieSTAT3(wt) [4] = test: as above; details: 72 h; STAT3 variant: wild type
Procedure, shortened: as §1

| SMILES | drug sensitivity score (HEK293sieSTAT3(Y640F) [1]) | drug sensitivity score (HEK293sieSTAT3(wt) [2]) | drug sensitivity score (HEK293sieSTAT3(Y640F) [3]) | drug sensitivity score (HEK293sieSTAT3(wt) [4]) |
| --- | --- | --- | --- | --- |
| Cc1csc(-c2nnc(Nc3ccc(Oc4ncccc4-c4ccnc(N)n4)cc3)c3ccccc23)c1 [AMG-900] (top concentration tested 1000 nM) | 0 | 0 | 4.35 | 3.01 |
| CC/C(=C(\c1ccccc1)c1ccc(OCCN(C)C)cc1)c1ccccc1 [Tamoxifen] (top concentration tested 10000 nM) | 2.88 | 8.77 | 4.47 | 5.42 |
| Cc1cc(-c2ncc(-c3cccnc3)cc2/C=C/c2ccccc2)cnc1-c1cccnc1 [Pyridoclax] (top concentration tested 25000 nM) | 1.38 | 5.06 | 12.2 | 10.1 |
| C=CC(=O)Nc1cc2c(Nc3ccc(F)c(Cl)c3)ncnc2cc1OCCCN1CCOCC1 [Canertinib] (top concentration tested 10000 nM) | 6.41 | 7.96 | 6.3 | 8.37 |
| C[C@]1(c2nc3c(C(N)=O)cccc3[nH]2)CCCN1 [Veliparib] (top concentration tested 10000 nM) | 0 | 0.43 | 0 | 2.28 |
| COc1cc2c(Nc3ccc(Cl)c(Cl)c3F)ncnc2cc1OC[C@@H]1C[C@@H]2CN(C)C[C@@H]2C1 [XL-647] (top concentration tested 1000 nM) | 0 | 0 | 1.72 | 0.88 |
| Cc1nc(NC(=O)N2CCC[C@H]2C(N)=O)sc1-c1ccnc(C(C)(C)C(F)(F)F)c1 [Alpelisib] (top concentration tested 2500 nM) | 0 | 0 | 0.49 | 3.18 |
| COc1cccc2c1C(=O)c1c(O)c3c(c(O)c1C2=O)C[C@@](O)(C(=O)CO)C[C@@H]3O[C@H]1C[C@H](N)[C@H](O)[C@H](C)O1 [Doxorubicin] (top concentration tested 1000 nM) | 0 | 0 | 18.6 | 19.3 |
| CCNC(=O)C[C@@H]1N=C(c2ccc(Cl)cc2)c2cc(OC)ccc2-n2c(C)nnc21 (top concentration tested 10000 nM) | 0.87 | 5.42 | 9.51 | 4.81 |
| CC(C)(C)c1cc(NC(=O)Nc2ccc(-c3cn4c(n3)sc3cc(OCCN5CCOCC5)ccc34)cc2)no1 [Quizartinib] (top concentration tested 1000 nM) | 0 | 1.05 | 2.15 | 2.01 |
| O=C1NC(=O)/C(=C/c2ccc3nccc(-c4ccncc4)c3c2)S1 (top concentration tested 10000 nM) | 0 | 3.49 | 15.4 | 11.3 |
| CCN(CC)C(=S)SSC(=S)N(CC)CC [Disulfiram] (top concentration tested 100000 nM) | 30.9 | 30.4 | 31.1 | 30.2 |
| Nc1ncnc2c1nc(N)n2[C@@H]1O[C@H](CO)[C@@H](O)[C@H]1O [8-amino-adenosine] (top concentration tested 50000 nM) | 11.1 | 15.1 | 21.9 | 23.9 |
| O=C(CCCCCCNC(=O)c1cnc(N(c2ccccc2)c2ccccc2)nc1)NO [Rocilinostat] (top concentration tested 10000 nM) | 1.02 | 0.53 | 8 | 6.92 |
| CCc1c2c(nc3ccc(OC(=O)N4CCC(N5CCCCC5)CC4)cc13)-c1cc3c(c(=O)n1C2)COC(=O)[C@]3(O)CC [Irinotecan] (top concentration tested 10000 nM) | 2.17 | 6.44 | 12.2 | 14.5 |
| CC[C@]1(O)C[C@H]2CN(CCc3c([nH]c4ccccc34)[C@@](C(=O)OC)(c3cc4c(cc3OC)N(C=O)[C@H]3[C@@](O)(C(=O)OC)[C@H](OC(C)=O)[C@]5(CC)C=CCN6CC[C@]43[C@@H]65)C2)C1 [Vincristine] (top concentration tested 1000 nM) | 6.72 | 16.2 | 21.2 | 23.6 |
| Cc1cc(-c2nc(-c3ccc(OC(F)(F)F)cc3)no2)nn1Cc1ccnc(N2CCN(C3CC3)CC2)c1 [BAY 87-2243] (top concentration tested 1000 nM) | 0 | 0 | 12.6 | 12.5 |
| CC(=O)NCC(=O)N1[C@@H]2CC[C@H]1c1ccc(Nc3ncc(C(F)(F)F)c(NC4CCC4)n3)cc12 (top concentration tested 10000 nM) | 1.98 | 8.9 | 13.2 | 16.8 |
| CC1(COc2ccc3c(c2)ncn3-c2ccc3cccc(N4CCC(N)CC4)c3n2)COC1 [Crenolanib] (top concentration tested 10000 nM) | 8.74 | 11 | 9.27 | 11.9 |
| CC[C@@H]1C(=O)OC[C@@H]1Cc1cncn1C [Pilocarpine] (top concentration tested 40000 nM) | 0 | 0 | 0.59 | 1.32 |
| NCCNc1ccc(NCCN)c2c1C(=O)c1ccncc1C2=O [Pixantrone] (top concentration tested 10000 nM) | 0 | 0 | 1.82 | 0 |
| C[C@@H]1C[C@H]2[C@@H]3CCC4=CC(=O)C=C[C@]4(C)[C@@]3(F)[C@@H](O)C[C@]2(C)[C@@]1(O)C(=O)CO [Dexamethasone] (top concentration tested 10000 nM) | 0 | 0 | 3 | 2.01 |

| SMILES | drug sensitivity score (HEK293sieSTAT3(Y640F) [1]) | drug sensitivity score (HEK293sieSTAT3(wt) [2]) | drug sensitivity score (HEK293sieSTAT3(Y640F) [3]) | drug sensitivity score (HEK293sieSTAT3(wt) [4]) |
| --- | --- | --- | --- | --- |
| CC(C)N(CCCNC(=O)Nc1ccc(C(C)(C)C)cc1)C[C@H]1O[C@@H](n2cc(Br)c3c(N)ncnc32)[C@H](O)[C@@H]1O [SGC0946] (top concentration tested 10000 nM) | 0.07 | 6.85 | 3.05 | 7.15 |
| NCC(=O)Nc1ccc(-n2nc(C(F)(F)F)cc2-c2ccc3c(ccc4ccccc43)c2)cc1 (top concentration tested 25000 nM) | 5.9 | 7.25 | 13.5 | 16.3 |
| CC(=O)O[C@]1(C(C)=O)CC[C@H]2[C@@H]3C=C(C)C4=CC(=O)CC[C@]4(C)[C@H]3CC[C@@]21C [Megestrol acetate] (top concentration tested 10000 nM) | 0 | 0 | 3.65 | 0.97 |
| COc1cc(N2CCC(N3CCN(C)CC3)CC2)ccc1Nc1ncnc(Nc2ccccc2S(=O)(=O)C(C)C)n1 [ASP3026] (top concentration tested 10000 nM) | 0.7 | 4.8 | 7.3 | 8.01 |
| CN1CCN(c2nc(C3=C(c4c[nH]c5ccccc45)C(=O)NC3=O)c3ccccc3n2)CC1 [Sotrastaurin] (top concentration tested 10000 nM) | 3 | 0.69 | 3.63 | 5.78 |
| COc1cccc2cc(-c3nc([C@H]4CC[C@H](C(=O)O)CC4)n4ncnc(N)c34)[nH]c12 [OSI-027] (top concentration tested 10000 nM) | 0 | 0 | 7.79 | 6.8 |
| CCN(CC)CCNC(=O)c1c(C)[nH]c(/C=C2\C(=O)Nc3ccc(F)cc32)c1C [Sunitinib] (top concentration tested 1000 nM) | 0 | 0 | 0.02 | 0 |
| COc1cc(N2CCN(C)CC2)ccc1Nc1nccc(-c2cn(C)c3cnccc23)n1 [AZ191] (top concentration tested 10000 nM) | 1.68 | 2.77 | 6.19 | 4.19 |
| O=c1[nH]c(=O)n([C@H]2C[C@H](O)[C@@H](CO)O2)cc1F [Floxuridine] (top concentration tested 10000 nM) | 0.42 | 1.28 | 27.2 | 29 |
| CC(C)(C)c1nc(-c2cccc(NS(=O)(=O)c3c(F)cccc3F)c2F)c(-c2ccnc(N)n2)s1 [Dabrafenib] (top concentration tested 2500 nM) | 0 | 0 | 0 | 0 |
| Clc1ccc(Nc2nnc(Cc3ccncc3)c3ccccc23)cc1 [Vatalanib] (top concentration tested 10000 nM) | 0 | 0 | 0.9 | 1.89 |
| Cc1cccc(CC(=O)N2CCc3c2ccc(-c2cn(C)c4ncnc(N)c24)c3F)n1 (top concentration tested 2500 nM) | 0 | 0.89 | 0 | 0 |
| CNC(=O)c1ccccc1Sc1ccc2c(/C=C/c3ccccn3)n[nH]c2c1 [Axitinib] (top concentration tested 10000 nM) | 4.38 | 7.83 | 5.84 | 8.07 |
| O=C(Nc1cc(Cl)cc2c1[nH]c1cnccc12)c1cccnc1 [PS-1145] (top concentration tested 25000 nM) | 1.94 | 0.08 | 0 | 3.94 |
| CCc1cc2c(cc1N1CCC(N3CCOCC3)CC1)C(C)(C)c1[nH]c3cc(C#N)ccc3c1C2=O [Alectinib] (top concentration tested 1000 nM) | 0 | 2.75 | 3.02 | 4.73 |
| CN1CC[C@@H](NC(=O)Nc2ccc(C#N)cc2)C[C@@H]1c1nc2ccccc2[nH]1 [Glasdegib] (top concentration tested 1000 nM) | 0 | 0 | 3.01 | 0 |
| CNC(=O)CN1CCC(Oc2cc3c(Nc4cccc(Cl)c4F)ncnc3cc2OC)CC1 [Sapitinib] (top concentration tested 1000 nM) | 0 | 0 | 1.89 | 0 |
| CC(C)n1cnc2c(NCCc3ccc(O)cc3)nc(-c3csc4ccccc34)nc21 [StemRegenin 1] (top concentration tested 10000 nM) | 0.52 | 5.48 | 3.04 | 5.04 |
| FC(F)c1nc2ccccc2n1-c1nc(N2CCOCC2)nc(N2CCOCC2)n1 [ZSTK474] (top concentration tested 10000 nM) | 0 | 6.5 | 12.8 | 16.6 |
| CC(C)C[C@H](NC(=O)[C@H](CCc1ccccc1)NC(=O)CN1CCOCC1)C(=O)N[C@@H](Cc1ccccc1)C(=O)N[C@@H](CC(C)C)C(=O)[C@@]1(C)CO1 [Carfilzomib] (top concentration tested 1000 nM) | 26.5 | 31.9 | 31.2 | 32.8 |
| FC(F)(F)c1ccc(CNc2ccc(Cc3c[nH]c4ncc(Cl)cc34)cn2)cn1 [Pexidartinib] (top concentration tested 10000 nM) | 0 | 0 | 3.45 | 2.35 |
| O=C(O)CNC(=O)c1c(O)c2ccccc2n(Cc2ccccc2)c1=O [IOX-2] (top concentration tested 50000 nM) | 0 | 0 | 0 | 2.91 |
